The source of these data is article PMC4823791, “A dual drug regimen synergistically blocks human parainfluenza virus infection” (Scientific Reports, 2016).

For orientation: IC50 means the concentration needed to halve the response being measured. A high value points to weaker potency in that assay. The Ki is a dissociation constant, usually derived from enzyme kinetics or from competition with a known ligand. Usually KM stands for the substrate concentration at which the rate is half of its maximum. Broadly, the inhibition is the drop in the measured response relative to a control, in per cent.

Assay [1] concerns the target T1, hPIV-3 HN (haemagglutinin-neuraminidase) (Human parainfluenza 3 virus (strain NIH 47885), UniProt P08492). Put plainly: STD-NMR. The class given is binding. Particulars: 5 mM zanamivir alone, 50 mM NaOAc, 5 mM CaCl2, pD 4.6, 283 K; purified UV-inactivated virus particles.
Assay [2] concerns the target T1, hPIV-3 HN (haemagglutinin-neuraminidase). The assay can be described thus: fluorogenic MUN neuraminidase inhibition assay. The class given is biochemical. The settings on record: neuraminidase activity; 2 mM MUN, pH 4.6, 5 mM CaCl2, 37 °C, 30 min; PEG-precipitated intact virus; non-competitive.
Assay [3] has the same target. The assay can be described thus: Lineweaver-Burk kinetics, MUN fluorescence. The assay is classed as biochemical. The settings on record: non-competitive; MUN 2-20 mM, suramin 0, 10, 16 μM; virus particles.
Assay [4] shares this target. The assay can be described thus: Lineweaver-Burk kinetics, MUN fluorescence. Particulars: virus particles; MUN 2-20 mM, so Km lies above the tested range (extrapolated): unreliable. The assay is classed as biochemical. How it is done:
Lineweaver-Burk kinetics, MUN fluorescence on hPIV-3 HN (haemagglutinin-neuraminidase) | constant (KM) value ... was calculated from this point of convergence

Assay [5] has the same target. Put plainly: fluorogenic MUN neuraminidase inhibition screen. The assay is classed as biochemical. An excerpt:
fluorogenic MUN neuraminidase inhibition screen on hPIV-3 HN (haemagglutinin-neuraminidase) | Evans blue and erythrosine sodium, with a neuraminidase inhibition of […]

T1 sequence (P08492 whole entry): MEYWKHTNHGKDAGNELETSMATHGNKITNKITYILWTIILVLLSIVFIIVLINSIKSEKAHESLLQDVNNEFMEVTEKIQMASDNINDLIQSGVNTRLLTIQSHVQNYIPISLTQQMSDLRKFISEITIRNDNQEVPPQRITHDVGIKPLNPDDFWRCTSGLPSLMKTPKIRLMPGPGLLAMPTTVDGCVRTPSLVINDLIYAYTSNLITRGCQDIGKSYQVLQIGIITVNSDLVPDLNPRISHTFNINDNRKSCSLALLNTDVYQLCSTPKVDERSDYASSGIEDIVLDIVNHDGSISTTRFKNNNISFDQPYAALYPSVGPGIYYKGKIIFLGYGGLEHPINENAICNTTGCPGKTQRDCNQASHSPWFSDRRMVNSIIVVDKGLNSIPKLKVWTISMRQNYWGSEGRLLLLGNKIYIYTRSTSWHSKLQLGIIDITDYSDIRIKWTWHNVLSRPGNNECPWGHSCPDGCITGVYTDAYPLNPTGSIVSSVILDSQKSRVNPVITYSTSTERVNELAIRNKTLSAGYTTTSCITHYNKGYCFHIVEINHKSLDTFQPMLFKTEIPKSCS

Take `CC(=O)N[C@H]1[C@H]([C@H](O)[C@H](O)CO)OC(C(=O)O)=C[C@@H]1N=C(N)N` [compound 3, zanamivir]: the STD-NMR entry in assay [1] is reported as “STD-NMR signals of both drugs were obtained, thus confirming their binding to HN”.
In assay [2], `Cc1ccc(C(=O)Nc2ccc(S(=O)(=O)O)c3cc(S(=O)(=O)O)cc(S(=O)(=O)O)c23)cc1NC(=O)c1cccc(NC(=O)Nc2cccc(C(=O)Nc3cc(C(=O)Nc4ccc(S(=O)(=O)O)c5cc(S(=O)(=O)O)cc(S(=O)(=O)O)c45)ccc3C)c2)c1` [compound 7, suramin] registered an IC50 of 13.5 µM. The compound further showed an inhibitory constant (Ki) in assay [3] of 5.06 ± 0.62 µM.
Turning to `CC(=O)N[C@H]1[C@H]([C@H](O)[C@H](O)CO)O[C@@](Oc2ccc3c(C)cc(=O)oc3c2)(C(=O)O)C[C@@H]1O` [compound 6, 2′-(4-methylumbelliferyl) α-D-N-acetylneuraminide], the KM in assay [4] was 30.3 ± 1.02 mM.
In turn, `O=C1OC2(c3ccccc31)c1cc(I)c(O)c(I)c1Oc1c2cc(I)c(O)c1I` [erythrosine sodium] came in with an inhibition at 100 µM in assay [5] of 92.8 ± 0.9%.
On the same count and under the same terms, with `Cc1cc(-c2ccc(/N=N/c3ccc4c(S(=O)(=O)O)cc(S(=O)(=O)O)c(N)c4c3O)c(C)c2)ccc1/N=N/c1ccc2c(S(=O)(=O)O)cc(S(=O)(=O)O)c(N)c2c1O` [Evans blue] the figure was 79.4 ± 1.8%.
